{
  "source": "patent US8703787B2",
  "about": "“Methods of using ALK inhibitors” (IRM LLC, priority 2011, dated 2014)",
  "key": {"NCI-H2228 cells": {"system": "NCI-H2228 cells", "assay": "In vitro cell growth and proliferation (luciferase readout)", "assay_type": "cell-based", "settings": "Homo sapiens, 72 h; NCI-H2228 with EML4-ALK, luciferase-expressing, 3 days incubation", "experimental": "NCI-H2228 cells were obtained from the American Type Culture Collection (ATCC) (Manassa, USA) and modified by viral infection to stably express luciferase. For cell growth and proliferation assays, 2250 cells in 50 μL of RPMI media (Gibco, Carlsbad, Calif.) containing 10% fetal bovine serum (FBS) (Gibco, Carlsbad, Calif.) were plated into solid bottom, white 384-well plates (Corning, Acton, Mass.) using μ-Fill instrumentation (Bio-Tek). Plates were incubated 1 hour in a 37° C. tissue culture incubator prior to the addition of compound using MiniTrak instrumentation (Perkin-Elmer). 50 nL of a 1:3 dilution plate of compounds was added to the assay plates, resulting in final concentrations of 10000, 3333, 1111, 370, 123, 41, 14, 4.6, 1.5, 0.5 and 0.17 nM. After compound addition, plates were incubated for 3 days at 37° C. in a tissue culture incubator. At day 3, plates were assayed for cell growth and proliferation by means of measuring luciferase activity in each individual well. In detail, 25 μL of BRIGHT-GLO® (Promega, Madison, Wis.) or BRITELITE™ (PerkinElmer, Waltham, Mass.) was added to each well. After 10 minutes of incubation at room temperature, plates were read using either an Analyst-GT or an Envision plate reader (Molecular Devices, Sunnyvale, Calif.). […]"}, "NCI-H2228 tumors": {"system": "NCI-H2228 tumors", "assay": "Subcutaneous xenograft tumor model derived from NCI-H2228 cells", "assay_type": "in vivo, mouse", "description": "The day of implantation, NCI-H2228 cells were harvested with 0.05% Trypsin/EDTA and resuspended in a mixture of RPMI 1640 serum-free medium and matrigel (BD Biosciences #354234, La Jolla, Calif.) at a ratio of 1:1. Five million cells were subcutaneously implanted into the right hind flank of SCID beige mouse. When the tumor size reached a volume of 300-400 mm3, the tumors were harvested and were cut into smaller pieces of 1-2 mm3 in culture medium for passage implanting subcutaneously. After the tumors were consecutively passaged three times in SCID beige mice, the tumors were considered as stock tumors for study implantation. The tumor pieces were kept in a mixture of RPMI1640 serum-free medium and matrigel at a ratio of 1:1 on wet ice for implanting in SCID beige mice. Implantation in […] mice: 2-3 pieces of the tumor with matrigel mixture were subcutaneously implanted into the right flank of the mice. After implantation, the tumors were callipered 3 times per week once tumors became palpable.\nSCID beige mice bearing the H2228 tumors were randomized into 5 groups (n=4 mice per group) with an average tumor volume of 85±35 mm3. The test compound was administered by oral gavage. Its exposure in the tumor bearing female SCID beige mice was evaluated on day 14. Tumor growth was calculated by % T/C as follows: % T/C=(ΔT/ΔC)×100, where ΔT>0; or % T/C=(ΔT/ΔTI)×100, where ΔT<0. Changes in tumor volume (Δ volumes) for each treated (T) and control (C) group were calculated for each day tumors were measured by subtracting the median tumor volume on the day of first treatment (staging day) from the median tumor volume on the specified observation day."}, "[1]": {"system": "crizotinib resistant NCI-H2228 tumors", "assay": "Anti-tumor activity in crizotinib resistant NCI-H2228 xenograft tumors", "assay_type": "in vivo, mouse", "experimental": "The mouse xenograft tumors derived from NCI-H2228 were treated with crizotinib continuously at 50 mg/kg for 9 days, then 75 mg/kg for 9 days and then 100 mg/kg for 33 days. Alternatively, after xenograft tumors derived from NCI-H2228 were treated with crizotinib for 14 days at 100 mg/kg, the treatment with crizotinib was stopped for a few days until tumors re-grew. Once tumors re-grew, animals were treated with crizotinib at 100 mg/kg until tumors became resistant to crizotinib treatment. Tumors from individual animal were harvested when they became resistant to crizotinib. A few such resistant tumors were randomly selected for further studies as described below. Each resistant tumor were cut into small pieces at harvest and implanted into 5 animals; when tumor size was big enough in the 5 animals, the tumors were harvested and then implanted into 25 animals for compound testing. A piece of harvested tumors was also used for RNA extraction and subsequently sequencing of EML4-ALK transcript."}, "[2]": {"assay": "4-wk GLP toxicology studies / exposure comparison", "assay_type": "in vivo", "settings": "based on 4-wk GLP toxicology studies, predicted"}},
  "note": "pIC50: −log10 of the molar value.",
  "data": [
    {"smiles": "Cc1cc(Nc2ncc(Cl)c(Nc3ccccc3S(=O)(=O)C(C)C)n2)c(OC(C)C)cc1C1CCNCC1", "note": "[Compound 1, 5-chloro-N2-(2-isopropoxy-5-methyl-4-(piperidin-4-yl)phenyl)-N4-[2-(propane-2-sulfonyl)-phenyl]-pyrimidine-2,4-diamine]", "values": [
      {"measurement": "pIC50", "setting": "NCI-H2228 cells", "value": 7.96},
      {"measurement": "animal body weight loss", "setting": "NCI-H2228 tumors; dosed orally at 25 mg/kg once a day for 2 weeks", "value": "not observed"},
      {"measurement": "anti-tumor activity (tumor regression)", "setting": "NCI-H2228 tumors; dosed orally at 25 mg/kg once a day for 2 weeks, FIG. 1", "value": "complete tumor regression"},
      {"measurement": "tolerability", "setting": "NCI-H2228 tumors; mouse, in vivo, po, 25 mg/kg", "value": "well tolerated"},
      {"measurement": "anti-tumor growth activity in crizotinib resistant NCI-H2228", "setting": "[1]; FIG. 2", "value": "significant anti-tumor growth activity"},
      {"measurement": "activity compared with crizotinib at 100 mg/kg", "setting": "[1]; other crizotinib resistant NCI-H2228 tumors, FIG. 3", "value": "better activity than crizotinib"},
      {"measurement": "exposure associated with 50 mg/kg in mouse relative to exposure at the MTD in humans", "setting": "[2]", "value": "below the exposure at the MTD in humans"}
    ]},
    {"smiles": "CC(C)Oc1cc2c(cc1Nc1ncc(Cl)c(Nc3ccccc3S(=O)(=O)C(C)C)n1)C(=O)N(C1CCN(C)CC1)C2", "note": "[Compound 6, 6-{5-Chloro-4-[2-(propane-2-sulfonyl)-phenylamino]-pyrimidin-2-ylamino}-5-isopropoxy-2-(1-methyl-piperidin-4-yl)-2,3-dihydro-isoindol-1-one]", "values": [
      {"measurement": "pIC50", "setting": "NCI-H2228 cells", "value": 7.80}
    ]}
  ]
}
